We go through 3 compounds from ChEMBL document CHEMBL4613322, “HOPPI-NMR: Hot-Peptide-Based Screening Assay for Inhibitors of Protein-Protein Interactions by NMR” (ACS Med Chem Lett, 2020).

Data set [1] concerns the target T1, AP-1 complex subunit beta-1 (Homo sapiens, UniProt Q10567).
T1 sequence (Q10567 whole entry): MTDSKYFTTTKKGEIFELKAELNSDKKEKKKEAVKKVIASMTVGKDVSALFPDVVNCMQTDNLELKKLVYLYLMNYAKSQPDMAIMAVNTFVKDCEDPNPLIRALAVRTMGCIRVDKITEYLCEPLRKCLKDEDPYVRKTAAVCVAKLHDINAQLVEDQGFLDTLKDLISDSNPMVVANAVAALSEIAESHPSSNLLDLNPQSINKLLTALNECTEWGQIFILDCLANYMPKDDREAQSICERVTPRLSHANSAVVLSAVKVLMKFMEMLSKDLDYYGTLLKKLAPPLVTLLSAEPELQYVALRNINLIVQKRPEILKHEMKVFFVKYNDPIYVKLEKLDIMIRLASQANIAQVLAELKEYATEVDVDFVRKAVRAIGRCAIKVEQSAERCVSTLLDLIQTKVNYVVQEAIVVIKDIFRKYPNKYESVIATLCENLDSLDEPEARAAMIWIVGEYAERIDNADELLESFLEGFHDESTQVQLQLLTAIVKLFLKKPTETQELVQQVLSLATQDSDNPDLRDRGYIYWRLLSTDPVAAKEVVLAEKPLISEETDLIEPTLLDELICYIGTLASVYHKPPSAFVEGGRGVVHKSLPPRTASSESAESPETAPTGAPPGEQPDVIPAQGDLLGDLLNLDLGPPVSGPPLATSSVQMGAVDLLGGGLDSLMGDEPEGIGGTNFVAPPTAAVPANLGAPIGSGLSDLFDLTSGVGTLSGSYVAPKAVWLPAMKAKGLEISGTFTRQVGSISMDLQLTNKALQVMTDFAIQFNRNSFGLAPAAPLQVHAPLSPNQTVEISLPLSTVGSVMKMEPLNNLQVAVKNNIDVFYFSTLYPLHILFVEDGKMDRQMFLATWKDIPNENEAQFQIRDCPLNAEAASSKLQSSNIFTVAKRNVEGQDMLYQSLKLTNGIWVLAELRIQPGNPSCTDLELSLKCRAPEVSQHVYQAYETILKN
The data set can be described thus: Binding affinity to beta-adaptin 1 (unknown origin) by fluorescence polarization assay.

Data set [2] deals with Bcl-2-like protein 1 (Mus musculus, UniProt Q64373). The data set is described as follows: Binding affinity to BCL-xl in murine B-cell lymphoma assessed as inhibition of BCL-xl/Bax protein-protein interaction.
Data set [3] is described as follows: Solubility of compound in PBS. Type of data set: physicochemical.

≈ marks a conversion by molar mass, not a printed value. Peptide text beside a SMILES is read from it.

Sequence of Bcl-2-like protein 1 (Q64373 whole entry): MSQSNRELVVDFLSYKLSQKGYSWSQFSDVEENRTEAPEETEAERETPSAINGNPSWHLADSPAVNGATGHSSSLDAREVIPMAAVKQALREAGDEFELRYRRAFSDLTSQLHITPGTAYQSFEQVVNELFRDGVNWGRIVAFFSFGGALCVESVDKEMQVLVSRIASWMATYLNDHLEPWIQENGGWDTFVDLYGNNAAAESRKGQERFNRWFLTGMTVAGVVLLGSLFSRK

The term Kd denotes a measure of binding affinity in units of concentration. Take `CC[C@H](C)[C@H](NC(=O)[C@H](CC(=O)O)NC(=O)[C@H](CC(=O)O)NC(=O)[C@@H](N)CC(=O)O)C(=O)N[C@H](C(=O)N[C@@H](Cc1ccccc1)C(=O)N[C@@H](CCC(=O)O)C(=O)N[C@@H](CC(=O)O)C(=O)N[C@@H](Cc1ccccc1)C(=O)N[C@@H](C)C(=O)N[C@@H](CCCNC(=N)N)C(=O)N[C@@H](CCC(N)=O)C(=O)N[C@@H](CCCNC(=N)N)C(=O)N[C@@H](CC(C)C)C(=O)N[C@@H](CCCCN)C(=O)NCC(=O)N[C@@H](CCSC)C(=O)N[C@@H](CCCCN)C(=O)N[C@@H](CC(=O)O)C(=O)N[C@@H](CC(=O)O)C(=O)O)C(C)C` (H-DDDIVFEDFARQRLKGMKDD-OH): the Kd in data set [1] came out at 2.1 µM.
On to `CC[C@H](C)[C@H](NC(=O)[C@H](CCCN=C(N)N)NC(=O)[C@H](CCCCN)NC(=O)[C@H](CC(C)C)NC(=O)[C@H](CS)NC(=O)[C@H](CCC(=O)O)NC(=O)[C@H](CO)NC(=O)[C@H](CC(C)C)NC(=O)[C@H](CCCCN)NC(=O)[C@@H](N)CCCCN)C(=O)NCC(=O)N[C@@H](CC(=O)O)C(=O)N[C@@H](CCC(=O)O)C(=O)N[C@@H](CC(C)C)C(=O)N[C@@H](CC(=O)O)C(=O)N[C@@H](CO)C(=O)O` (H-KKLSECLKRIGDELDS-OH), for which the dissociation constant Kd in data set [2] was 13 µM.
What is called solubility is how much of the substance goes into solution per volume. Compound `COc1ccc(C2=N[C@@H](c3ccc(Cl)cc3)[C@@H](c3ccc(Cl)cc3)N2C(=O)N2CCNC(=O)C2)c(OC(C)C)c1` [NUTLIN-3] returned a solubility in data set [3] of 100 µM (≈ 58.2 µg/mL).
